Measured values as given in patent US8202995B2, “Pharmaceutically acceptable salts of aporphine derivatives and carboxyl group-containing agents and methods for preparing the same” (Standard Chem. & Pharm. Co., Ltd., priority 2008, dated 2012).

Columns and labels:
[1] = test system: lipid peroxidase, Dunkin Hartley Guinea pig liver microsomes; assay: Activity in inhibiting lipid peroxidase (malondialdehyde quantitation); type: biochemical; settings: 10 μM, 20 minutes/37° C.
Description: The assay was executed with reference to the method described in Biochem Biophys Res Commun. Mar. 28, 1986; 135(3): 1015-21.
• (a) Source: Dunkin Hartley Guinea pig liver microsomes • (b) Substrate: Polyunsaturated fatty acid • (c) Vehicle: 1% DMSO • (d) Pre-Incubation Time/Temp: 15 minutes/37° C. • (e) Incubation Time/Temp: 20 minutes/37° C. • (f) Incubation Buffer: 0.25 M Potassium Phosphate, pH 7.4, 0.1 mM EDTA • (g) Quantitation Method: Spectrophotometric quantitation of Malondialdehyde

[2] = Protection from peroxy radical-induced damage, Method A (β-phycoerythrin fluorescence, AAPH); type: biochemical; settings: test compound 5×10^−6 M, AAPH 25 mM, β-phycoerythrin 5 nM, pH 7.4, FIG. 9
Description: In order to evaluate the effect of test compounds in scavenging hydrophilic peroxy radical, the experiment was executed with reference to the method described by Tsuchiya et al. (Methods Enzymol 1992, 213: 460-472). In the experiment, peroxides will react with fluorescent substances and thus inflect observed fluorescence intensity. Thereby, the effect of test compounds in free radical scavenging can be evaluated by measuring the variation of the fluorescence intensity after the addition of test compounds.
First, to a silicate tube was added a phosphate solution (2 ml, pH 7.4), followed by the addition of β-phycoerythrin (5 nM) to increase relative fluorescence intensity. After 5 minutes, 2,2′-azobis (2-amidinopropane)dihydrochloride (25 mM, AAPH) was added therein. Subsequently, through a fluorescent spectrometry (Shimadzu RF-5301PC, Japan), the fluorescence intensity of β-phycoerythrin was measured by excitation at 540 nm and emission at 570 nm. Then, the test compounds (5×10^−6 M) was further added therein to observe the variation of the fluorescence intensity, in which 0.1% DMSO was taken as a control group.

[3] = test system: vascular smooth muscle cells of rats; assay: Protecting activity in vascular smooth muscle cells against H2O2 (MTT); type: cell-based, rat; settings: 10 μM compound, 30 minutes before H2O2 200 μM for 24 hours, FIG. 17
Description: The vascular smooth muscle cells of rats (2×10^4 cells/mL×1 mL) were quantitatively seeded in 24-well plates, and cultured in Dulbecco's modified Eagle medium (DMEM) with 10% fetal bovine serum (FBS) for 24 hours to achieve cell adhesion. After cell adhesion, the DMEM medium with 10% fetal bovine serum was replaced with a fresh DMEM medium with 0.1% fetal bovine serum to perform cell culture for 48 hours.
Next, each test compound was added in the cultures (final concentration: 0.1, 1, 10 μM). After 30 minutes, H2O2 (200 μM) was added therein to perform reaction for 24 hours in an incubator. Subsequently, in a light-proof environment, MTT (100 μL) was added into each well to perform reaction at 37° C. for 3 hours. The supernatant liquor was removed and then isopropanol (500 μL) was added, followed by shaking for 10 minutes. After standing for 10 minutes, supernatant liquor (200 μL) was transferred into 96-well plates. Finally, the absorbance value (O.D.) was monitored at 540 nm (OD540) and 630 nm (OD630). Based on the measured absorbance values (OD540-OD630), the effect of these test compounds on cell growth can be evaluated, as shown in FIG. 3.

[4] = PROGRESS (n=6105), individuals with cerebrovascular disease; cited from earlier work
[5] = Free radical scavenging of 1,1-diphenyl-2-picryl-hydrazyl (DPPH); type: biochemical; settings: DPPH 100 μM, 30 min, absorbance at 517 nm, FIGS. 2-8
Description: After 30 min, the absorbance (O.D.) was monitored spectrophotometrically at 517 nm. The activity in inhibiting free radical DPPH results in the decrease of absorbance.

[6] = Oxygen radical absorbing capacity, Method B (fluorescenin fluorescence decay, AAPH); type: biochemical; settings: test substance 1 μM, 18.75 mM AAPH, 0.06 μM fluorescenin, 37° C., pH 7.4, FIGS. 10-16
Description: In order to evaluate the oxygen radical absorbing capacity of test compounds. The automated assay was carried out as described in a previous report by Gillespie and co-workers (Gillespie et al., 2007). The experiment was conducted at 37° C. under pH 7.4 condition with a blank sample in parallel. Briefly, 2, 2′-azobis (2-amidinopropane) dihydrochloride (AAPH) was used as a peroxyl generator. The final reaction mixture for each black microplat in a 96-well microplate assay contained 0.06 μM fluorescenin, 18.75 mM AAPH and appropriate test substance (1 μM) in 75 mM phosphate buffer. Test substance was directly dissolved in DMSO and diluted with 75 mM potassium phosphate buffer (pH 7.4) for analysis. The analyzer was programmed to record the fluorescence of fluorescenin every minute after the addition of AAPH. All fluorescent measurements are expressed relative to the initial reading (excitation at 485 nm and emission at 530 nm) on a FLUOstar Galaxy plate reader (Roche Diagnostic System Inc., Branchburg, N.J.). Raw data were exported from the Fluostar Galaxy software to an Excel (Microsoft, Roselle, Ill.) sheet for further calculations. All the reaction mixtures were prepared in duplicate, and at least three independent assays were performed for each sample. (Gillespie, K M et al., Nature Protocols 2007; 2: 867-870.)

[7] = HOPE (n=9297), patients with high cardiovascular risk; cited from earlier work

Row | Molecule | activity in free radical scavenging of DPPH in comparison with carboxyl group-containing agent alone and thaliporphine alone [5] | activity in free radical scavenging of APPH in comparison with carboxyl group-containing agent alone and aporphine alone [6] | also measured
1 | COc1cc2c(cc1OC)-c1c(O)c(OC)cc3c1C(C2)N(CC(=O)Nc1c(C)cccc1C)CC3 (stereo not shown) [Compound 2] |  |  | Inhibition (%) [1]: 70%; protection of β-phycoerythin from peroxy radical AAPH-induced damage (fluorescence degradation) [2]: can protect β-phycoerythin; inhibition of H2O2-induced damage to vascular smooth muscle cells [3]: slightly inhibited
2 | CCC[C@H](N[C@@H](C)C(=O)N1[C@H](C(=O)O)C[C@@H]2CCCC[C@@H]21)C(=O)OCC [perindopril] |  |  | reduction of recurrent stroke [4]: 28%
3 | CC(=O)NC(CS)C(=O)O.COc1cc2c(cc1O)CC1c3c(cc(OC)c(OC)c3-2)CCN1C (stereo not shown) [acetylcysteine salt of thaliporphine, Acetylcysteine salt of Thaliporphine] | much higher activity | much higher activity | 
4 | salsalate salt of thaliporphine | much higher activity | much higher activity | 
5 | COc1cc2c(cc1OC)-c1c(OC)c(OC)cc3c1C(C2)N(C)CC3.O=C(O)C=Cc1ccc(Cn2ccnc2)cc1 (stereo not shown) [ozagrel salt of glaucine] |  | much higher activity | 
6 | nateglinide salt of thaliporphine | much higher activity | much higher activity | 
7 | CCOC(=O)[C@H](CCc1ccccc1)N[C@@H](C)C(=O)N1[C@H](C(=O)O)C[C@@H]2CCC[C@@H]21 [ramipril] |  |  | reduction of composite outcome (cardiovascular death, myocardial infarction and cerebrovascular accident) [7]: 22%
8 | COc1cc2c(cc1OC)-c1c(O)c(OC)cc3c1C(C2)N(CC(O)COc1ccccc1OC)CC3 (stereo not shown) [Compound 1] |  |  | Inhibition (%) [1]: 64%; protection of β-phycoerythin from peroxy radical AAPH-induced damage (fluorescence degradation) [2]: can protect β-phycoerythin; inhibition of H2O2-induced damage to vascular smooth muscle cells [3]: significantly inhibited
9 | Telmisartan salt of Thaliporphine | much higher activity |  | 
10 | Captopril salt of Thaliporphine | much higher activity | much higher activity | 
11 | bezafibrate salt of thaliporphine | much higher activity | much higher activity | 
12 | Atorvastatin salt of Thaliporphine | much higher activity | much higher activity | 
